Measurements taken from paper PMC8466755, “GPCR Pharmacological Profiling of Aaptamine from the Philippine Sponge Stylissa sp. Extends Its Therapeutic Potential for Noncommunicable Diseases” (Molecules, 2021).
Entries after “also recorded” stand apart in the source; their conditions may differ.

Key:
ADRA2A = ADRA2A (Homo sapiens, UniProt P08913); test: PathHunter β-arrestin assay, antagonist mode; format: cell-based
Protocol: (§5) The assay was performed by DiscoverX Corporation (Fremont, CA) using PathHunter β -arrestin enzyme fragment complementation (EFC) technology, in a similar way to that described elsewhere [35, 36]. The PathHunter cell lines were taken from freezer stocks according to standard procedures. A total of 20 µL of cells were seeded into white 384-well plates and incubated at 37 °C for the appropriate time prior to testing.

SSTR1 [1] = target: T1, SSTR1 (Homo sapiens, UniProt P30872); test: PathHunter β-arrestin assay, positive allosteric modulation (PAM) mode; format: cell-based; details: dose-response, control agonist at EC20
OPRK1 = OPRK1 (Homo sapiens, UniProt P41145); test: PathHunter β-arrestin primary screen, antagonist mode (potentiator hit); format: cell-based; details: control agonist at EC80, negative inhibition = potentiation, read-out: % Activation or inhibition, primary screen
Protocol: (§1) Aaptamine (20 µM) was profiled in gpcrMAX panel biosensor assays (in agonist and antagonist modes) against a panel of 168 GPCRs. The assay was performed by DiscoverX Corporation (Fremont, CA) using PathHunter β -arrestin enzyme fragment complementation (EFC) technology, in a similar way to that described elsewhere. The PathHunter cell lines were taken from freezer stocks according to standard procedures. A total of 20 µL of cells were seeded into white 384-well plates and incubated at 37 °C for the appropriate time prior to testing.
(§2) For antagonist determination, PathHunter cells were preincubated with aaptamine followed by the addition of an agonist. In this assay format, the standard agonist was added at an EC80 concentration. To the plate that contained the cells, 5 µL of the 5X sample was added and incubated for 30 min at 37 °C or room temperature. After the incubation period, 5 µL of the 6X EC80 agonist in an assay buffer was added to the cells and incubated for additional 90 or 180 min at 37 °C or room temperature.

HTR1E = HTR1E (Homo sapiens, UniProt P28566); test: as above; format: cell-based; details: control agonist at EC80, negative inhibition = potentiation, read-out: % Activation or inhibition, primary screen
Protocol: as §1, §2

SSTR1 [2] = target: T1, SSTR1; test: as above; format: cell-based; details: control agonist at EC80, negative inhibition = potentiation, read-out: % Activation or inhibition, primary screen
Protocol: as §1, §2

CXCR3 [3] = target: T2, CXCR3 (Homo sapiens, UniProt P49682); test: as above; format: cell-based; details: control agonist at EC80, negative inhibition = potentiation, read-out: Primary Screen Maximal Response, % Inhibition or Activation
T2 sequence (P49682 1-368): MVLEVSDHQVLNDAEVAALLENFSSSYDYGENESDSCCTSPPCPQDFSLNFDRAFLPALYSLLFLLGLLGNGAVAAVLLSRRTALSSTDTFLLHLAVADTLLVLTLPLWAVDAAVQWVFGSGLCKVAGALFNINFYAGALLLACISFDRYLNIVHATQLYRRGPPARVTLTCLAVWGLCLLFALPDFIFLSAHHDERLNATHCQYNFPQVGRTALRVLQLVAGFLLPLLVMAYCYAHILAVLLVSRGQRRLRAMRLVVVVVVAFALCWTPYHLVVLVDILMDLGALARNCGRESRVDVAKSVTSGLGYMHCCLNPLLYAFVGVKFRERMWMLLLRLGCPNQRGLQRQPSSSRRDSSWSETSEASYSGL
Protocol: as §1, §2

CCR3 [4] = target: T3, CCR3 (Homo sapiens, UniProt P51677); test: as above; format: cell-based; details: control agonist at EC80, negative inhibition = potentiation, read-out: Primary Screen Maximal Response, % Inhibition or Activation
T3 sequence (P51677 1-355): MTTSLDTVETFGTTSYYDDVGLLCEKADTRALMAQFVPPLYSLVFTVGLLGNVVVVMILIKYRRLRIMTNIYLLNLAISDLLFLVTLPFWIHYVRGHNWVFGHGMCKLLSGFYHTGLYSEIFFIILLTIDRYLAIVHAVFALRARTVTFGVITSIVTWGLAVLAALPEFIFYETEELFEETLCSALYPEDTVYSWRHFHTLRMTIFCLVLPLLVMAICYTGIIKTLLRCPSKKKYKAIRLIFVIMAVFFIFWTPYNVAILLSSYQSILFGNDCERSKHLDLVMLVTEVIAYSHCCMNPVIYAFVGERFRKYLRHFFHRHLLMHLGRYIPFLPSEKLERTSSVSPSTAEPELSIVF
Protocol: as §1, §2

DRD2L = DRD2L (Homo sapiens, UniProt P14416); test: PathHunter β-arrestin assay, antagonist mode; format: cell-based
Protocol: as §5

ADRB2 = ADRB2 (Homo sapiens, UniProt P07550); test: PathHunter β-arrestin assay, antagonist mode; format: cell-based
Protocol: as §5

[5] = tested on: Saccharomyces cerevisiae (BY4741); test: Yeast growth inhibition assay; format: cell-based; details: up to 50 µM, 24 h
Text: Each treatment was done in triplicate.

HeLa cells = tested on: HeLa cells; design: method as in PMID 20451377; details: read-out: cytotoxicity against HeLa cells IC50; cited from earlier work
CXCR3 [6] = target: T2, CXCR3; test: PathHunter β-arrestin assay, positive allosteric modulation (PAM) mode; format: cell-based; details: control agonist at EC20
Protocol: (§3) Hit validation was performed by subjecting the aaptamine to an agonist, antagonist, and positive allosteric modulation (PAM) secondary screen utilizing thirteen GPCR biosensor assays (Arrestin) against the following targets: ADRA2A, ADRA2C, ADRB2, CCR1, CCR3, CXCR3, CXCR7, DRD2L, DRD2S, DRD4, HTR1E, OPRK1, and SSTR1. The assays were performed at 10-point concentrations using three-fold serial dilutions in duplicate. For all the assay formats, the final assay vehicle concentration was 1%.
(§4) For PAM assays, the cells were preincubated with the sample followed by agonist induction at the EC20 concentration. To the cells, 5 µL of 5X sample was added and incubated for 30 min at 37 °C or room temperature. Following the incubation period, 5 µL of the 6X EC20 agonist prepared in an assay buffer was added to the cells and incubated for 90 or 180 min at 37 °C or room temperature. The percent activity of aaptamine was calculated following this formula: % modulation = 100% × ((mean RLU of test sample − mean RLU of EC20 control)/(mean RLU of MAX control ligand − mean RLU of EC20 control)).

CCR3 [7] = target: T3, CCR3; test: as above; format: cell-based; details: control agonist at EC20
Protocol: as §3, §4

[8] = dose-response analysis, read-out: Dose-Response Maximal Response, % Inhibition
[9] = PAM mode, read-out: Dose-Response Maximal Response, % Activation
[10] = dose-response, read-out: EC50 (PAM)

Chain of ADRB2 (P07550 whole entry): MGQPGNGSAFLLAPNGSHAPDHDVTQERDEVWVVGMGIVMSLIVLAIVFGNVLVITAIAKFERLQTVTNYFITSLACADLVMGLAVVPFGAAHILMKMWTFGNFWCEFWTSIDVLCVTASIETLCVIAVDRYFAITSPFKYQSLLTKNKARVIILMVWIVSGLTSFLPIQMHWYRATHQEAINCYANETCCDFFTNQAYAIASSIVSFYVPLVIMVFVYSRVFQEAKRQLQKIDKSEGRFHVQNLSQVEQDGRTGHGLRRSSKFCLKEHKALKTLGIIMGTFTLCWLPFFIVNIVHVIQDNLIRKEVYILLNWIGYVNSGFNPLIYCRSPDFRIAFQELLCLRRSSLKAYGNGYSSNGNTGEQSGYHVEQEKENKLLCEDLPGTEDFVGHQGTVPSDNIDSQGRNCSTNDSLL
T1 sequence (P30872 whole entry): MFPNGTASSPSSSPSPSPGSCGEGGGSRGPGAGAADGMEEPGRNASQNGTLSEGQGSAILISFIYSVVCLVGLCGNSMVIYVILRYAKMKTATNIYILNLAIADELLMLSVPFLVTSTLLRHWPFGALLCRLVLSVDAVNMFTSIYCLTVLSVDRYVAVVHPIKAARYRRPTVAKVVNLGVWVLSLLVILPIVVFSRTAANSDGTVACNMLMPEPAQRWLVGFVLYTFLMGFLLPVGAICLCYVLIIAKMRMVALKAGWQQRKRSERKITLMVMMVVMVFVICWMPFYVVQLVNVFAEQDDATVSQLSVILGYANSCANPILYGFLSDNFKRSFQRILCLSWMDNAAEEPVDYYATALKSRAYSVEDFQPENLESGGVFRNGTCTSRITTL
Chain of DRD2L (P14416 whole entry): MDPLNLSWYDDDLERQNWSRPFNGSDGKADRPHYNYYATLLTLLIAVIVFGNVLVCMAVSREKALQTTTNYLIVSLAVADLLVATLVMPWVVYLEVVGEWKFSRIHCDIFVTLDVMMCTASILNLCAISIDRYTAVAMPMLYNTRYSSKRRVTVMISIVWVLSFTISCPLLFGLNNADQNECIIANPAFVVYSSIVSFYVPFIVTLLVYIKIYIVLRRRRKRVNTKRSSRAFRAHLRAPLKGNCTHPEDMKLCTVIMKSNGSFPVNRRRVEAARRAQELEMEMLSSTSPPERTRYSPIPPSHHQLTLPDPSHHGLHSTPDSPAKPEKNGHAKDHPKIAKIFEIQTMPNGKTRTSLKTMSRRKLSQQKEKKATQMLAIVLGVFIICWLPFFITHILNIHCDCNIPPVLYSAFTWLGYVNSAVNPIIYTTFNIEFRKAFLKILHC
Chain of ADRA2A (P08913 whole entry): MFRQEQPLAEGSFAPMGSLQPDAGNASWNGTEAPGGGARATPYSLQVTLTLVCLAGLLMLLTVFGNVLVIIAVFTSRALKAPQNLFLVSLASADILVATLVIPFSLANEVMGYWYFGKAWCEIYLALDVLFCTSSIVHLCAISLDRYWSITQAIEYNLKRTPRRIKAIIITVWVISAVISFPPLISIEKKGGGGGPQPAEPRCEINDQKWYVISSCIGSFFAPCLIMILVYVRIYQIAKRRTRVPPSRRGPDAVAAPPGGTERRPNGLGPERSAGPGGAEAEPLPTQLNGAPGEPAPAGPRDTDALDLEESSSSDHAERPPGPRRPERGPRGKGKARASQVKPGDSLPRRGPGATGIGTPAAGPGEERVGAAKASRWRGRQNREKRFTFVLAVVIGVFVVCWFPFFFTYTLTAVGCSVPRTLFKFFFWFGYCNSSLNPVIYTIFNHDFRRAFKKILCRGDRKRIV
Chain of HTR1E (P28566 whole entry): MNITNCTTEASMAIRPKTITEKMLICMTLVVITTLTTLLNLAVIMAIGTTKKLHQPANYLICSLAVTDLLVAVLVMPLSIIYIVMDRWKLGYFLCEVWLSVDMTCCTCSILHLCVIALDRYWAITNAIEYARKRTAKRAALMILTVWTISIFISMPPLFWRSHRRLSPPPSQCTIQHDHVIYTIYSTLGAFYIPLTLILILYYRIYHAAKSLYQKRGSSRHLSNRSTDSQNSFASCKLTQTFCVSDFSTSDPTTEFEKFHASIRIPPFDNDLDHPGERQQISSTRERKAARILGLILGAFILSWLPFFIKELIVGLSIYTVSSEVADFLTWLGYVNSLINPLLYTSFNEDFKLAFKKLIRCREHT
Chain of OPRK1 (P41145 whole entry, the tested form may be a part): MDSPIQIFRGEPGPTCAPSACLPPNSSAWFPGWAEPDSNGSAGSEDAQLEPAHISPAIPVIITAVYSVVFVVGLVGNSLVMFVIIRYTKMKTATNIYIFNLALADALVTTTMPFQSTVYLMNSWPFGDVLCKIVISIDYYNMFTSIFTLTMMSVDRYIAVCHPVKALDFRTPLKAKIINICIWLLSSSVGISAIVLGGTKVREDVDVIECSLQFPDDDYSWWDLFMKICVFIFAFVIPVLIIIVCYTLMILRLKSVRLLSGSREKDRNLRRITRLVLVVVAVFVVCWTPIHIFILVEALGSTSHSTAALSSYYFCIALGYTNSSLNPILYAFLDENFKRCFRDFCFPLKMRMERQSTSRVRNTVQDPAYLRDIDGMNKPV

Question: Which Emax (ADRA2A; [8]) does the source give for COc1cc2ccnc3c2c(c1OC)NC=C3 [aaptamine] here?
Answer: 63.4%

Question: And the IC50 (ADRA2A; dose-response, antagonist mode)?
Answer: 56.1 µM

Question: And the “validation of potentiator hit under PAM conditions” value (SSTR1 [1])?
Answer: false positives; also recorded: did not validate

Question: And the inhibition at 20 µM (OPRK1)?
Answer: -46%

Question: And the inhibition at 20 µM (HTR1E)?
Answer: -47%

Question: And the inhibition at 20 µM (SSTR1 [2])?
Answer: -46%

Question: And the Emax at 20 µM (CXCR3 [3])?
Answer: 69%

Question: And the Emax at 20 µM (CCR3 [4])?
Answer: 49%

Question: And the Emax (DRD2L; [8])?
Answer: 73.7%

Question: And the IC50 (DRD2L; dose-response, antagonist mode)?
Answer: 38.7 µM

Question: What about the Emax (ADRB2; [8]) of the same molecule?
Answer: 96.5%

Question: And the IC50 (ADRB2; dose-response, antagonist mode)?
Answer: 200 nM

Question: What about the “selectivity for ADRB2 over ADRA2C” value (ADRB2; from IC50 values) of the same molecule?
Answer: > 50 fold

Question: What about the growth inhibitory activity [5] of the same molecule?
Answer: did not observe growth inhibitory activity

Question: And the IC50 (HeLa cells)?
Answer: 66 µM

Question: What about the Emax (CXCR3 [6]; [9]) of the same molecule?
Answer: 74.6%

Question: What about the EC50 (CXCR3 [6]; [10]) of the same molecule?
Answer: 31.8 µM

Question: And the Emax (CCR3 [7]; [9])?
Answer: 33%

Question: And the EC50 (CCR3 [7]; [10])?
Answer: 16.2 µM
